Where “and” joins values, the source holds several entries; their conditions need not be identical. Identical values can stand only once. Like-named read-outs stand apart in the source and are kept apart here.
Tests used:
[1] = Biosafety (cytotoxicity) evaluation on H9c2 cells (MTT); assay type: cell-based, rat; details: rat, H9c2 cells; H9c2, 50 μM, MTT; read-out: cell viability
Procedure: (§1) Compounds DG-13 and DG-15 dissolved in DMSO were added to each well with required concentrations (3.125, 6.25, 12.5, 25, 50 µM). Then the control group were treated with the same volume of medium. The non-administered group were not treated (no cells and no medium). Then the sterile plates were further incubated for 4 h, following MTT addition. After 4 h, supernatant liquor was removed into the waste and all of the wells were then placed into the fresh DMSO (0.15 mL). The absorbance was measured using BIORAD 550 spectrophotometer with the emission wavelengths of 490 nm. Each data was measured three times in parallel survival fraction of cells, calculated by the equation: [OD490 (Drug group) − OD490 (non-administered group)]/[OD490 (Control group) − OD490 (non-administered group)] ×100%.

H9c2 cells = assay: as above; assay type: cell-based, rat; details: for cytotoxicity (in words): H9c2, 3.125-50 μM
Procedure: as §1

SH-SY5Y cells [2] = details: for EC50: read-out: EC50 (neuroprotection), SH-SY5Y damaged by TBHP, 24 h, MTT, n = 3
SH-SY5Y cells [3] = assay: Morphological observation of TBHP-damaged SH-SY5Y cells by Giemsa and DAPI staining; assay type: cell-based, human; details: TBHP-damaged SH-SY5Y, 10, 20, 40 μM
Procedure: Afterwards, the medium containing compound DG-15 were added to the cultures for 24 h and the concentration range of the examined compounds was 10, 20 and 40 µM. Then 0.1 mL TBHP was used to damage cells and the plate was cultured for further 24 h. Removing the culture medium, washing twice with PBS and fixing cells with 2 mL methanol for 2 min and 1 mL paraformaldehyde for 15 min respectively and washed with fresh PBS again. Giemsa solution or DAPI was added to stain the fixed cells for 2 min and protected from light. Finally, the cells ware washed with water and were observed under inverted fluorescent microscope.

chorioallantoic membrane = assay: Angiogenesis in chorioallantoic membrane (CAM) model; assay type: in vivo, chicken; details: new vessels inner diameter < 100 μm
Procedure: The CAM was examined as a predictive model for the angiogenic activity studies of compounds DG-15. The wide end of the fresh fertilized egg was placed upward in an incubator at 37 °C with a relative humidity of 60%. All the eggs were turned every two hours to prevent from sticking to each other. Compound DG-15 was dissolved with acetone at a concentration of 1 mg/mL and 4 mg/mL and then 5 µL solution was transferred to gelatin sponge using a pipette respectively. The sham treatment group was added to the same volume of saline. Disinfected with UV lamp for 30 min. After 7 days, the broader said of eggs was disinfected with 70% alcohol, then a 30-mm-diameter window was carefully opened in the shell to reduce the chamber pressure before removed the upper shell membrane with tweezers. In addition, the non-fertilized oocytes and unhealthy developed embryos were thrown away. Then the gelatin sponge was embedded into the allantoic membrane and the window was sealed with adhesive tape, with the eggs being returned to the incubator. The eggs were then incubated 3 days after administration, fixed with methanol-acetone (1:1) for 10 min and repeated four times. […] The vascular growth was analyzed with a dissecting microscope and counted by software of Image Professional Plus 5.0 software (Media Cybernetics, Inc, MD, USA)

Row | SMILES | EC50 (SH-SY5Y cells [2]) | melting point [°C] | other results
1 | C[C@@H]1CC[C@@]2(OC1)O[C@H]1C[C@H]3[C@@H]4CC=C5C[C@@H](O)CC[C@]5(C)[C@H]4CC[C@]3(C)[C@H]1[C@@H]2C [DG, diosgenin] | > 50 µM |  | viability at 50 µM [1]: ~60%; cytotoxicity (in words) (H9c2 cells; MTT): toxic under all treated groups; EC50 (SH-SY5Y cells [2]; listed as diosgenin): > 40 µM
2 | CC1CCC2(OC1)OC1CC3C4CC=C5CC(OC(=O)CNC(=O)OC(C)(C)C)CCC5(C)C4CCC3(C)C1C2C (stereo not drawn) [DG-1, 3β-(N-Boc-glycine)-diosgenin] | > 50 µM | 218.7 | 
3 | CC1CCC2(OC1)OC1CC3C4CC=C5CC(OC(=O)C(C)NC(=O)OC(C)(C)C)CCC5(C)C4CCC3(C)C1C2C [DG-2, 3β-(N-Boc-L-alanine)-diosgenin] |  | 218.9 | 
4 | CC1CCC2(OC1)OC1CC3C4CC=C5CC(OC(=O)CN(C)C(=O)OC(C)(C)C)CCC5(C)C4CCC3(C)C1C2C (stereo not drawn) [DG-3, 3β-(N-Boc-sarcosine)-diosgenin] | 15.2 ± 0.96 µM |  | 
5 | CC1CCC2(OC1)OC1CC3C4CC=C5CC(OC(=O)C6CCCN6C(=O)OC(C)(C)C)CCC5(C)C4CCC3(C)C1C2C [DG-4, 3β-(N-Boc-L-proline)-diosgenin] | 23.8 ± 6.83 µM | 183.4 | 
6 | CC(C)CC(NC(=O)OC(C)(C)C)C(=O)OC1CCC2(C)C(=CCC3C2CCC2(C)C3CC3OC4(CCC(C)CO4)C(C)C32)C1 [DG-5, 3β-(N-Boc-L-leucine)-diosgenin] | 9.51 ± 1.79 µM |  | 
7 | CCC(C)C(NC(=O)OC(C)(C)C)C(=O)OC1CCC2(C)C(=CCC3C2CCC2(C)C3CC3OC4(CCC(C)CO4)C(C)C32)C1 [DG-6, 3β-(N-Boc-L-isoleucine)-diosgenin] | 18.5 ± 1.87 µM |  | 
8 | CC1CCC2(OC1)OC1CC3C4CC=C5CC(OC(=O)C(Cc6ccccc6)NC(=O)OC(C)(C)C)CCC5(C)C4CCC3(C)C1C2C [DG-7, 3β-(N-Boc-L-phenylalanine)-diosgenin] | > 50 µM | 163.4 | 
9 | CC1CCC2(OC1)OC1CC3C4CC=C5CC(OC(=O)C(NC(=O)OCc6ccccc6)C(C)C)CCC5(C)C4CCC3(C)C1C2C [DG-8, 3β-(N-Cbz-L-valine)-diosgenin] | 38.1 ± 6.68 µM | 158.4 | 
10 | CC1CCC2(OC1)OC1CC3C4CC=C5CC(OC(=O)C(CCCCNC(=O)OCc6ccccc6)NC(=O)OCc6ccccc6)CCC5(C)C4CCC3(C)C1C2C [DG-9, 3β-(N-Cbz-L-lysine)-diosgenin] | 36.2 ± 8.67 µM | 135.8 | 
11 | CC1CCC2(OC1)OC1CC3C4CC=C5CC(OC(=O)CN)CCC5(C)C4CCC3(C)C1C2C (stereo not drawn) [DG-10, 3β-(glycine)-diosgenin] | > 50 µM | 110.8 | 
12 | CC1CCC2(OC1)OC1CC3C4CC=C5CC(OC(=O)C(C)N)CCC5(C)C4CCC3(C)C1C2C [DG-11, 3β-(L-alanine)-diosgenin] | > 50 µM | 219.1 | 
13 | CNCC(=O)OC1CCC2(C)C(=CCC3C2CCC2(C)C3CC3OC4(CCC(C)CO4)C(C)C32)C1 (stereo not drawn) [DG-12, 3β-(sarcosine)-diosgenin] | > 50 µM | 176 | 
14 | CC1CCC2(OC1)OC1CC3C4CC=C5CC(OC(=O)C6CCCN6)CCC5(C)C4CCC3(C)C1C2C [DG-13, 3β-(L-proline)-diosgenin] | 7.22 ± 1.58 µM |  | survival rate (H9c2 cells; H9c2, 25 μM, MTT): 12%; cytotoxicity (in words) (H9c2 cells; MTT): significantly enhanced compared with diosgenin
15 | CC(C)CC(N)C(=O)OC1CCC2(C)C(=CCC3C2CCC2(C)C3CC3OC4(CCC(C)CO4)C(C)C32)C1 [DG-14, 3β-(L-leucine)-diosgenin] | 32.6 ± 0.97 µM | 154.4 | 
16 | CCC(C)C(N)C(=O)OC1CCC2(C)C(=CCC3C2CCC2(C)C3CC3OC4(CCC(C)CO4)C(C)C32)C1 [DG-15, 3β-(L-isoleucine)-diosgenin] | 6.86 ± 0.69 µM | 147.1 | cytotoxicity (in words) (H9c2 cells; MTT): no cytotoxicity; inhibitory effect on cells (H9c2 cells; H9c2, concentrations below 25 μM): no inhibitory effect; morphological change, DAPI staining (SH-SY5Y cells [3]): the number of SH-SY5Y cells was increasingly larger; morphological change, Giemsa staining (SH-SY5Y cells [3]): the typical signs for apoptosis were reduced; increase of number of blood vessels (chorioallantoic membrane; 1 mg/mL on gelatin sponge): 60.61%; increase of number of blood vessels (chorioallantoic membrane; 4 mg/mL on gelatin sponge): 80.30%
17 | CC1CCC2(OC1)OC1CC3C4CC=C5CC(OC(=O)C(N)Cc6ccccc6)CCC5(C)C4CCC3(C)C1C2C [DG-16, 3β-(L-phenylalanine)-diosgenin] | 11.4 µM and 11.2 µM |  | 
18 | CC1CCC2(OC1)OC1CC3C4CC=C5CC(OC(=O)C(N)C(C)C)CCC5(C)C4CCC3(C)C1C2C [DG-17, 3β-(L-valine)-diosgenin] | > 50 µM | 139.1 | 
19 | CC1CCC2(OC1)OC1CC3C4CC=C5CC(OC(=O)C(N)CCCCN)CCC5(C)C4CCC3(C)C1C2C [DG-18, 3β-(L-lysine)-diosgenin] | > 50 µM | 189.4 | cytotoxicity seen in neuroprotective activity evaluation (in words) (SH-SY5Y cells [2]; SH-SY5Y, compared with compounds with neutral amino acids): higher cytotoxicity
20 | CC1=NN(c2ccccc2)C(=O)C1 [Edaravone, edaravone, reference compound] | 21.6 ± 3.04 µM |  | 

Source: paper PMC6891328, “Design, Synthesis and Biological Evaluation of Diosgenin-Amino Acid Derivatives with Dual Functions of Neuroprotection and Angiogenesis” (Molecules, 2019)
